Tests used:
Homo sapiens [1] = test: Antiosteoporotic activity in men with osteoporosis assessed as decrease in bone resorption-associated urinary CTX-1 level at 250 mg/kg after 10 to 14 days; format: functional; conditions: Urine
Homo sapiens [2] = test: Antiosteoporotic activity in men with osteoporosis assessed as decrease in bone resorption-associated serum CTX-1 level at 250 mg/kg after 10 to 14 days; format: functional, organism-based; parameters: dose 250 mg/kg; conditions: dose 250 mg/kg
[3] = biological target: Prostaglandin E2 receptor EP1 subtype (Homo sapiens, UniProt P34995); test: Binding affinity to EP1 receptor
Chain of Prostaglandin E2 receptor EP1 subtype (P34995 whole entry): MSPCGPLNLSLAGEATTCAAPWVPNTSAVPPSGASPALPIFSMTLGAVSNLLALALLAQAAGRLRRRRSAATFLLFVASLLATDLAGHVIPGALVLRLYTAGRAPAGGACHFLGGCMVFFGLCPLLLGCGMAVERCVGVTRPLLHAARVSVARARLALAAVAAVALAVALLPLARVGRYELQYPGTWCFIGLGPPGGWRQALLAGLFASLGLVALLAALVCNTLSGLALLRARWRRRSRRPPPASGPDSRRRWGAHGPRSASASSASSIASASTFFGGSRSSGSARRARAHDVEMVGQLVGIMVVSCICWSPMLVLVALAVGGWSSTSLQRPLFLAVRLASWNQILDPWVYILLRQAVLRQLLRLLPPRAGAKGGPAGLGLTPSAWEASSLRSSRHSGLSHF

Rattus norvegicus = test: Induction of bone formation in ovariectomized rat assessed as increase in total bone mineral content at 1 mg/kg, sc administered daily for 6 weeks relative to control; format: functional; conditions: route subcutaneous
[4] = Induction of osteogenesis in rat UMR106 cells assessed as stimulation of cell proliferation at 10 nM; format: functional
Integrin alpha-V/beta-3 [5] = biological target: T1, Integrin alpha-V/beta-3 (Homo sapiens, UniProt P05106+P06756)
T1 sequence (P05106 27-788 limits assumed): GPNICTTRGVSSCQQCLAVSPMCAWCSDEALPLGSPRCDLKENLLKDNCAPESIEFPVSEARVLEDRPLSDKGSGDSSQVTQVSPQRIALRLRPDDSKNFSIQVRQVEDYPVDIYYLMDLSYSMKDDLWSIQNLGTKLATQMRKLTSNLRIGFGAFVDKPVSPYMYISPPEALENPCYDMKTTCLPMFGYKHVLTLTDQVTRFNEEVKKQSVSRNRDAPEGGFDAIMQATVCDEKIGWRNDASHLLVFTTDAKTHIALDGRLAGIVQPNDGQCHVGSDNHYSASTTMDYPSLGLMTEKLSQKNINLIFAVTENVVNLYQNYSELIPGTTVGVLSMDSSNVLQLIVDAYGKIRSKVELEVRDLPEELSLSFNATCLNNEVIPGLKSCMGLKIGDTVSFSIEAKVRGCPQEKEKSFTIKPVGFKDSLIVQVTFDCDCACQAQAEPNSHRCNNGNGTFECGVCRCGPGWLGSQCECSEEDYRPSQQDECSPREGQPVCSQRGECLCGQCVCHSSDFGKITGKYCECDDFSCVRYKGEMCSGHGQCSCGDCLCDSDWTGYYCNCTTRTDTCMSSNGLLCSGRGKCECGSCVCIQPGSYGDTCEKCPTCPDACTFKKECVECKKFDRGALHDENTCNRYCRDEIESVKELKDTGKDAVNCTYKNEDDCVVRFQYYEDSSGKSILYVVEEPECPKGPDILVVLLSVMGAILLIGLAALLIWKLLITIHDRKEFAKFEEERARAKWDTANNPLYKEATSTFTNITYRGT
T1 sequence (P06756 31-889 limits assumed): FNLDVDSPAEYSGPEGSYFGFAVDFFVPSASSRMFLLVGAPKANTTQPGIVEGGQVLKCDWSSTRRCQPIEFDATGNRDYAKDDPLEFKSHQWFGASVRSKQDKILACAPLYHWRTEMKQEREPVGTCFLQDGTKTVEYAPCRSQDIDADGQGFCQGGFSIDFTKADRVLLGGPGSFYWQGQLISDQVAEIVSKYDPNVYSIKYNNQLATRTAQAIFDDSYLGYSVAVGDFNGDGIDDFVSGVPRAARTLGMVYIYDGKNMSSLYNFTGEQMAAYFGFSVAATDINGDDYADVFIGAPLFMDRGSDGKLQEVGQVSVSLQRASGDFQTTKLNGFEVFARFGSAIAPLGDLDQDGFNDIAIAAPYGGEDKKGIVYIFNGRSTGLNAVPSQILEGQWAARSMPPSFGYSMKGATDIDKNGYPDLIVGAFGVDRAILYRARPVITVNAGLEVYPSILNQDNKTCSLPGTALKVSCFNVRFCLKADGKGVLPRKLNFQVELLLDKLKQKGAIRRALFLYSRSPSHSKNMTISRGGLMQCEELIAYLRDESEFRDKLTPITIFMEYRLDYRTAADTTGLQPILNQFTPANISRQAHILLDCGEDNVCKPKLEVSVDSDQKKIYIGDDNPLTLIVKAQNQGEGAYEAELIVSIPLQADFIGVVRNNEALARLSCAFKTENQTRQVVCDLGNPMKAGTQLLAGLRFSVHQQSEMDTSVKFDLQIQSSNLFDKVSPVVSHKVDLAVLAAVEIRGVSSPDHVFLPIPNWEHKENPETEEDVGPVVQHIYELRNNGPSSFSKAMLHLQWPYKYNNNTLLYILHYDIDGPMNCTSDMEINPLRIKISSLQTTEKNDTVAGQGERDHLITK
T1 sequence (P06756 891-1048 limits assumed): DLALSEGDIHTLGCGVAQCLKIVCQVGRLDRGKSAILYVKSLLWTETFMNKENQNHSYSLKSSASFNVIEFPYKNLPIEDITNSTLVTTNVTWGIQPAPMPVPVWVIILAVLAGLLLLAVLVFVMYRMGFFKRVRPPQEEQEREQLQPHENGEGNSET

[6] = Half life in po dosed rat; format: ADME, organism-based; conditions: in vivo
[7] = Clearance in po dosed rat; format: ADME, organism-based; conditions: in vivo
MC3T3-E1 [8] = test: Induction of osteogenesis in mouse MC3T3-E1 cells assessed as increase in osteoblast differentiation-associated collagen synthesis at 0.03 uM; format: functional
MC3T3-E1 [9] = test: Induction of osteogenesis in mouse MC3T3-E1 cells assessed as increase in osteoblast differentiation-associated ALP level at 0.03 uM; format: functional
MC3T3-E1 [10] = test: Induction of osteogenesis in mouse MC3T3-E1 cells assessed as increase in bone mineralization at 0.03 uM; format: functional
Cannabinoid receptor 1 = Cannabinoid receptor 1 (Homo sapiens, UniProt P21554)
Chain of Cannabinoid receptor 1 (P21554 whole entry): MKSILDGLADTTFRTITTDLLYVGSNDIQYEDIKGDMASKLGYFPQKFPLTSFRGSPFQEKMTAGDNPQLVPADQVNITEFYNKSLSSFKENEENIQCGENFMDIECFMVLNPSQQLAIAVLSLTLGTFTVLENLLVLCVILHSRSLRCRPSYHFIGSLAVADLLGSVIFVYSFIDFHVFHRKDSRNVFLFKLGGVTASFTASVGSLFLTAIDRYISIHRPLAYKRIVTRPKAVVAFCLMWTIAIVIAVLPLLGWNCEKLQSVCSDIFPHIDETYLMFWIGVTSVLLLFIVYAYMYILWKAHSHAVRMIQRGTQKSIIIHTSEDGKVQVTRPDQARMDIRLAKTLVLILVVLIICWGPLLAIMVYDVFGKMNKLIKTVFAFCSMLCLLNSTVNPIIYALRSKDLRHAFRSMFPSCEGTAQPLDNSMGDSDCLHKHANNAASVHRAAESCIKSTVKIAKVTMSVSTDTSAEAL

Osteoclast [11] = test: Inhibition of osteoclast differentiation; format: functional, cell-based
Cannabinoid receptor 2 = Cannabinoid receptor 2 (Homo sapiens, UniProt P34972); test: Antagonist activity at cannabinoid CB2 receptor; format: functional
Chain of Cannabinoid receptor 2 (P34972 whole entry): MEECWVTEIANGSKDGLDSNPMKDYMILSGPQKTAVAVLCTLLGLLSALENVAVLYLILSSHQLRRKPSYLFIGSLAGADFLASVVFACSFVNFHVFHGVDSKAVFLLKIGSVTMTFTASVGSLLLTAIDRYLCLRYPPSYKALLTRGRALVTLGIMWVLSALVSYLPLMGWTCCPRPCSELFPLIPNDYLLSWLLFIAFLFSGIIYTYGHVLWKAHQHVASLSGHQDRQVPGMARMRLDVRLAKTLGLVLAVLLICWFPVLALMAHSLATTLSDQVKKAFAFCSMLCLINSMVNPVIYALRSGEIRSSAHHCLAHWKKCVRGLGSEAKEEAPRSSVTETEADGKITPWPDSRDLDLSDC

Integrin alpha-V/beta-3 [12] = biological target: T1, Integrin alpha-V/beta-3; test: Inhibition of integrin alpha-V-beta-3-mediated adhesion of human cells M21 cells; format: cell-based
[13] = Induction of osteogenesis in rat ROS 17/2.8 cells assessed as stimulation of cell proliferation at 1 nM; format: functional
MC3T3-E1 [14] = test: Induction of osteogenesis in mouse MC3T3-E1 cells assessed as increase in osteoblast differentiation-associated collagen synthesis at 0.3 uM; format: functional
MC3T3-E1 [15] = test: Induction of osteogenesis in mouse MC3T3-E1 cells assessed as increase in bone mineralization at 0.3 uM; format: functional
MC3T3-E1 [16] = test: Induction of osteogenesis in mouse MC3T3-E1 cells assessed as increase in osteoblast differentiation-associated ALP level at 0.3 uM; format: functional
[17] = Selectivity for integrin alphaVbeta3 over integrin alphaVbeta5
Osteoclast [18] = test: Inhibition of osteoclastogenesis in RANKL-stimulated mouse osteoclast at 20 uM; format: functional
Osteoclast [19] = test: Inhibition of osteoclastogenesis in RANKL-stimulated mouse osteoclast at 10 uM; format: functional
[20] = Selectivity for cathepsin K over cathepsin B
[21] = Selectivity for cathepsin K over cathepsin S
[22] = Selectivity for cathepsin K over cathepsin L

**Q.** Which inhibition in vivo at 250 mg/kg (Homo sapiens [1]) does the source give for `CN1CCN(CCOc2cc(OC3CCOCC3)c3c(Nc4c(Cl)ccc5c4OCO5)ncnc3c2)CC1` [SARACATINIB] here?
**A.** The inhibition in vivo at 250 mg/kg was 67%.

**Q.** And the inhibition in vivo at 250 mg/kg (Homo sapiens [2])?
**A.** The inhibition in vivo at 250 mg/kg was 88%.

**Q.** For `CCCCC[C@H](O)/C=C/[C@H]1[C@H](O)CC(=O)[C@@H]1C/C=C\CCCC(=O)O` [DINOPROSTONE], which IC50 [3] is on record?
**A.** Its IC50 is 0.0011 µM.

**Q.** What about the Activity (Rattus norvegicus) of the same compound?
**A.** Its Activity is 20.6%.

**Q.** Which Activity [4] does the source give for `O=c1c(O[C@@H]2O[C@H](CO)[C@@H](O)[C@H](O)[C@H]2O)c(-c2ccc(O)cc2)oc2cc(O[C@@H]3O[C@@H](CO)[C@H](O)[C@H]3O)cc(O)c12` here?
**A.** The Activity was 35.9%.

**Q.** For `COc1cc(Cl)c(/C=C2\S/C(=N/c3cccc(C(=O)O)c3)N(C)C2=O)cc1OC`, which IC50 (Integrin alpha-V/beta-3 [5]) is on record?
**A.** The IC50 was 0.03 µM.

**Q.** For `O=C(O)c1ccc(CCCN2C(=O)CC[C@@H]2CC[C@@H](O)Cc2cccc(C(F)(F)F)c2)s1`, which half-life [6] is on record?
**A.** The half-life was 12 min.

**Q.** What about the CL/F [7] of the same compound?
**A.** Its CL/F is 70 mL/min/kg.

**Q.** With `C=CCc1ccc(O)c(O[C@@H]2O[C@H](CO[C@@H]3OC[C@](O)(CO)[C@H]3O)[C@@H](O)[C@H](O)[C@H]2O)c1` [MANGLIESIDE B] as the compound, how does the Activity (MC3T3-E1 [8]) read?
**A.** Its Activity is 123%.

**Q.** And the Activity (MC3T3-E1 [9])?
**A.** Its Activity is 114%.

**Q.** And the Activity (MC3T3-E1 [10])?
**A.** The Activity was 118%.

**Q.** What does the source list for `COc1cc([C@H]2OC[C@H](Cc3cc(OC)c(O[C@@H]4O[C@H](CO)[C@@H](O)[C@H](O)[C@H]4O)c(OC)c3)[C@@H]2CO)cc(OC)c1O` [MANGLIESIDE E]?
**A.** Activity (MC3T3-E1 [8]): 118%; Activity (MC3T3-E1 [9]): 112%; Activity (MC3T3-E1 [10]): 109%

**Q.** Which Ki (Cannabinoid receptor 1) does the source give for `CCCCCCC(C)(C)c1cc(OC)c([C@H]2C=C(CO)[C@@H]3C[C@H]2C3(C)C)c(OC)c1` here?
**A.** The Ki was ≥ 10 µM.

**Q.** Which IC50 (Osteoclast [11]) does the source give for `COc1ccc(C(=O)c2c(C)n(CCN3CCOCC3)c3cc(I)ccc23)cc1` here?
**A.** Its IC50 is 0.33 µM.

**Q.** And the IC50 (Cannabinoid receptor 2)?
**A.** Its IC50 is 7.2 µM.

**Q.** With `N=C(N)N=C(N)Nc1cc(Cl)cc(Cl)c1` as the compound, how does the IC50 (Integrin alpha-V/beta-3 [12]) read?
**A.** The IC50 was 0.0335 µM.

**Q.** For `C[C@@H]1O[C@@H](O[C@H]2[C@H](Oc3cc(O)c4c(c3)O[C@H](c3ccc(O)cc3)CC4=O)O[C@H](CO)[C@@H](O)[C@@H]2O)[C@H](O)[C@H](O)[C@H]1O` [NARINGIN], which Activity [13] is on record?
**A.** Its Activity is 150%.

**Q.** What does the source list for `CO[C@@]1(C)CC/C=C(\C)CCC2=C(C)CO[C@H]2/C=C(\C)CC[C@@H]1O`?
**A.** Activity (MC3T3-E1 [14]): 108.2%; Activity (MC3T3-E1 [15]): 110.6%; Activity (MC3T3-E1 [16]): 127.8%

**Q.** What does the source list for `CC(C)(C)OC(=O)[C@@H]1C[C@H](CC(=O)O)[C@H]2CC[C@H](NC(=O)[C@@H](N)CCCNC(=N)N)C(=O)N21`?
**A.** Selectivity ratio [17]: 3.5; IC50 (Integrin alpha-V/beta-3 [5]): 0.304 µM

**Q.** For `O=C(O[C@@H]1Cc2c(O)cc(O)cc2O[C@@H]1c1cc(O)c(O)c(O)c1)c1cc(O)c(O)c(O)c1` [EPIGALOCATECHIN GALLATE], which inhibition at 20 µM (Osteoclast [18]) is on record?
**A.** Its inhibition at 20 µM is 32%.

**Q.** What about the inhibition at 10 µM (Osteoclast [19]) of the same compound?
**A.** Its inhibition at 10 µM is 17%.

**Q.** With `CC(C)CNc1nc(C#N)nc(N2CCOCC2)c1N` as the compound, how does the Selectivity ratio [20] read?
**A.** The Selectivity ratio was > 556.

**Q.** And the Selectivity ratio [21]?
**A.** Its Selectivity ratio is 31.

**Q.** And the Selectivity ratio [22]?
**A.** The Selectivity ratio was 111.

Reference: ChEMBL document CHEMBL1155461, “Emerging targets in osteoporosis disease modification” (J Med Chem, 2010)
